Earlier results as cited in patent US20250171403A1 (Synthon B.V., priority 2022, published 2025).

Conditions: qualitative, background statement

Structure (SMILES): COc1cc2nccc(Oc3ccc(NC(=O)C4(C(=O)Nc5ccc(F)cc5)CC4)cc3)c2cc1OC [Cabozantinib, N-[4-(6,7-Dimethoxyquinolin-4-yloxy)phenyl]-N′-(4-fluorophenyl)cyclopropane-1,1-dicarboxamide]
- solubility (prior art, general statement): poorly soluble
